# Measured values taken from ChEMBL document CHEMBL4622892, “New class of alkynyl glycoside analogues as tyrosinase inhibitors” (Bioorg Med Chem Lett, 2020).
# Calls of active or inactive are those of the source. No cut-off for these calls is given here.
# What was measured:
# Mushroom tyrosinase [1] = biological target: T1, Mushroom tyrosinase (Agaricus bisporus, UniProt O42713+Q00024+C7FF04+C7FF05)
# Description: Inhibition of mushroom tyrosinase using L-tyrosine as substrate
# Mushroom tyrosinase [2] = biological target: T1, Mushroom tyrosinase; remark: listed apart in the source
# Description: Inhibition of mushroom tyrosinase using L-DOPA as substrate
# [3] = biological target: T2, Mushroom tyrosinase (Agaricus bisporus) (UniProt O42713+Q00024+C7FF04+C7FF05); assay: Reversible inhibition of mushroom tyrosinase using L-DOPA as substrate by Lineweaver-Burk plot analysis
# Mushroom tyrosinase [4] = biological target: T1, Mushroom tyrosinase; assay: Non-competitive inhibition of mushroom tyrosinase using L-DOPA as substrate by Lineweaver-Burk blot analysis
# [5] = biological target: T2, Mushroom tyrosinase (Agaricus bisporus); assay: […] inhibition of mushroom tyrosinase using L-tyrosine as substrate by Lineweaver-Burk blot analysis
# Mushroom tyrosinase [6] = biological target: T1, Mushroom tyrosinase; assay: Non-competitive inhibition of mushroom tyrosinase using L-tyrosine as substrate by Lineweaver-Burk blot analysis
# [7] = biological target: T2, Mushroom tyrosinase (Agaricus bisporus); assay: Reversible inhibition of mushroom tyrosinase using L-tyrosine as substrate by Lineweaver-Burk plot analysis
Compound,IC50 (Mushroom tyrosinase [1]) [µM],IC50 (Mushroom tyrosinase [2]) [µM],further results
c1ccc(COC[C@H]2OC(OCc3ccccc3)[C@H](OCc3ccccc3)[C@@H](OCc3ccccc3)[C@@H]2OCc2ccccc2)cc1 (some centres undefined),> 500,> 500,
C#CCOC1O[C@H](COCc2ccccc2)[C@@H](OCc2ccccc2)[C@H](OCc2ccccc2)[C@H]1OCc1ccccc1 (some centres undefined),81.9,> 500,
C#CCOC[C@H]1OC(OCc2ccccc2)[C@H](OCc2ccccc2)[C@@H](OCc2ccccc2)[C@@H]1OCc1ccccc1 (some centres undefined),205,> 500,
C#CCOC1O[C@H](COC(C)=O)[C@@H](OCc2ccccc2)[C@H](OCc2ccccc2)[C@H]1OCc1ccccc1 (some centres undefined),461,> 500,
CC#CCO[C@H]1O[C@@H]2CO[C@@H](c3ccccc3)O[C@H]2[C@H](OCc2ccccc2)[C@H]1OCc1ccccc1,> 500,> 500,
C#CCCOC1O[C@H](COC)[C@@H](OCc2ccccc2)[C@H](OCc2ccccc2)[C@H]1OCc1ccccc1 (some centres undefined),> 500,> 500,
CC#CCOC1O[C@H](COC)[C@@H](OCc2ccccc2)[C@H](OCc2ccccc2)[C@H]1OCc1ccccc1 (some centres undefined),73.6,45.4,inhibition [3]: Active; Ki (Mushroom tyrosinase [4]): 52 µM
CC#CCOC1O[C@H](COCc2ccccc2)[C@@H](OCc2ccccc2)[C@H](OCc2ccccc2)[C@H]1OCc1ccccc1 (some centres undefined),54,70.7,inhibition [5]: Active; Ki (Mushroom tyrosinase [6]): 21 µM
C#CCOC1O[C@H](COCC#CC)[C@@H](OCc2ccccc2)[C@H](OCc2ccccc2)[C@H]1OCc1ccccc1 (some centres undefined),> 500,> 500,
CC#CCOC[C@H]1OC(OCc2ccccc2)[C@H](OCc2ccccc2)[C@@H](OCc2ccccc2)[C@@H]1OCc1ccccc1 (some centres undefined),> 500,> 500,
C#CCCOC1O[C@H](COC(C)=O)[C@@H](OCc2ccccc2)[C@H](OCc2ccccc2)[C@H]1OCc1ccccc1 (some centres undefined),268,> 500,
C#CCCOC1O[C@@H]2CO[C@@H](c3ccccc3)O[C@H]2[C@H](O)[C@H]1O (some centres undefined),463,207,
C#CCCO[C@H]1O[C@@H]2CO[C@@H](c3ccccc3)O[C@H]2[C@H](OCc2ccccc2)[C@H]1OCc1ccccc1,> 500,> 500,
C#CCOC1O[C@@H]2CO[C@@H](c3ccccc3)O[C@H]2[C@H](O)[C@H]1O (some centres undefined),> 500,> 500,
OC[C@H]1OC(OCc2ccccc2)[C@H](OCc2ccccc2)[C@@H](OCc2ccccc2)[C@@H]1OCc1ccccc1 (some centres undefined),> 500,> 500,
C#CCOC1O[C@H](CO)[C@@H](OCc2ccccc2)[C@H](OCc2ccccc2)[C@H]1OCc1ccccc1 (some centres undefined),> 500,> 500,
CO[C@H]1O[C@H](COC(C)=O)[C@@H](OCc2ccccc2)[C@H](OCc2ccccc2)[C@H]1OCc1ccccc1,> 500,> 500,
COC[C@H]1OC(OCc2ccccc2)[C@H](OCc2ccccc2)[C@@H](OCc2ccccc2)[C@@H]1OCc1ccccc1 (some centres undefined),> 500,435,
CO[C@H]1O[C@H](CO)[C@@H](OCc2ccccc2)[C@H](OCc2ccccc2)[C@H]1OCc1ccccc1,> 500,> 500,
CC#CCOC[C@H]1OC(OC)[C@H](OCc2ccccc2)[C@@H](OCc2ccccc2)[C@@H]1OCc1ccccc1 (some centres undefined),274,> 500,
C#CCCCOC1O[C@H](CO)[C@@H](OCc2ccccc2)[C@H](OCc2ccccc2)[C@H]1OCc1ccccc1 (some centres undefined),> 500,> 500,
CC#CCOC1O[C@H](COC(C)=O)[C@@H](OCc2ccccc2)[C@H](OCc2ccccc2)[C@H]1OCc1ccccc1 (some centres undefined),219,400,
C#CCCCOC1O[C@H](COCc2ccccc2)[C@@H](OCc2ccccc2)[C@H](OCc2ccccc2)[C@H]1OCc1ccccc1 (some centres undefined),105,> 500,
C#CCO[C@H]1O[C@@H]2CO[C@@H](c3ccccc3)O[C@H]2[C@H](OCc2ccccc2)[C@H]1OCc1ccccc1,> 500,431,
C#CCCCOC1O[C@H](COC)[C@@H](OCc2ccccc2)[C@H](OCc2ccccc2)[C@H]1OCc1ccccc1 (some centres undefined),> 500,> 500,
CC#CCO[C@@H]1O[C@H](COCc2ccccc2)[C@@H](OCc2ccccc2)[C@H](OCc2ccccc2)[C@H]1OCc1ccccc1,179,> 500,
CC#CCOC1O[C@H](CO)[C@@H](OCc2ccccc2)[C@H](OCc2ccccc2)[C@H]1OCc1ccccc1 (some centres undefined),> 500,80.4,
C#CCCOC1O[C@H](COCc2ccccc2)[C@@H](OCc2ccccc2)[C@H](OCc2ccccc2)[C@H]1OCc1ccccc1 (some centres undefined),150,34.3,inhibition [3]: Active; Ki (Mushroom tyrosinase [4]): 49 µM
COC[C@H]1O[C@H](OC)[C@H](OCc2ccccc2)[C@@H](OCc2ccccc2)[C@@H]1OCc1ccccc1,> 500,494,

# Now from value to molecule, other results behind:
IC50 (Mushroom tyrosinase [1]) [µM],IC50 (Mushroom tyrosinase [2]) [µM],Compound,further results
> 500,> 500,C#CCO[C@@H]1O[C@@H]2CO[C@@H](c3ccccc3)O[C@H]2[C@H](OCc2ccccc2)[C@H]1OCc1ccccc1,
321,> 500,CC#CCO[C@H]1O[C@H](COCc2ccccc2)[C@@H](OCc2ccccc2)[C@H](OCc2ccccc2)[C@H]1OCc1ccccc1,
> 500,383,C#CCOC1O[C@@H]2CO[C@@H](c3ccccc3)O[C@H]2[C@H](OCc2ccccc2)[C@H]1OCc1ccccc1 (some centres undefined),
191,> 500,CO[C@H]1O[C@H](COCc2ccccc2)[C@@H](OCc2ccccc2)[C@H](OCc2ccccc2)[C@H]1OCc1ccccc1,
273,357,CC(=O)OC[C@H]1OC(OCc2ccccc2)[C@H](OCc2ccccc2)[C@@H](OCc2ccccc2)[C@@H]1OCc1ccccc1 (some centres undefined),
> 500,> 500,C#CCCOC1O[C@H](CO)[C@@H](OCc2ccccc2)[C@H](OCc2ccccc2)[C@H]1OCc1ccccc1 (some centres undefined),
208,> 500,C#CCCCOC1O[C@H](COC(C)=O)[C@@H](OCc2ccccc2)[C@H](OCc2ccccc2)[C@H]1OCc1ccccc1 (some centres undefined),
> 500,288,C#CCOC[C@H]1OC(OCC#CC)[C@H](OCc2ccccc2)[C@@H](OCc2ccccc2)[C@@H]1OCc1ccccc1 (some centres undefined),
> 500,> 500,C#CCOC[C@H]1OC(OCC#C)[C@H](OCc2ccccc2)[C@@H](OCc2ccccc2)[C@@H]1OCc1ccccc1 (some centres undefined),
> 500,> 500,CC#CCO[C@@H]1O[C@@H]2CO[C@@H](c3ccccc3)O[C@H]2[C@H](OCc2ccccc2)[C@H]1OCc1ccccc1,
> 500,> 500,C#CCOC1O[C@H](COC)[C@@H](OCc2ccccc2)[C@H](OCc2ccccc2)[C@H]1OCc1ccccc1 (some centres undefined),
> 500,> 500,C#CCOC[C@H]1O[C@H](OC)[C@H](OCc2ccccc2)[C@@H](OCc2ccccc2)[C@@H]1OCc1ccccc1,
> 500,> 500,CC#CCOC1O[C@@H]2CO[C@@H](c3ccccc3)O[C@H]2[C@H](O)[C@H]1O (some centres undefined),
> 500,257,C#CCCOC1O[C@@H]2CO[C@@H](c3ccccc3)O[C@H]2[C@H](OCc2ccccc2)[C@H]1OCc1ccccc1 (some centres undefined),
> 500,> 500,C#CCO[C@H]1O[C@H](COCc2ccccc2)[C@@H](OCc2ccccc2)[C@H](OCc2ccccc2)[C@H]1OCc1ccccc1,
> 500,> 500,C#CCCO[C@@H]1O[C@@H]2CO[C@@H](c3ccccc3)O[C@H]2[C@H](OCc2ccccc2)[C@H]1OCc1ccccc1,
72,> 500,CC#CCOC[C@H]1OC(OCC#CC)[C@H](OCc2ccccc2)[C@@H](OCc2ccccc2)[C@@H]1OCc1ccccc1 (some centres undefined),inhibition [7]: Active; Ki (Mushroom tyrosinase [6]): 32 µM
94.7,> 500,C#CCO[C@@H]1O[C@H](COCc2ccccc2)[C@@H](OCc2ccccc2)[C@H](OCc2ccccc2)[C@H]1OCc1ccccc1,
> 500,> 500,CC#CCOC1O[C@@H]2CO[C@@H](c3ccccc3)O[C@H]2[C@H](OCc2ccccc2)[C@H]1OCc1ccccc1 (some centres undefined),
